Source: US20080262097A1, “Formulations” (priority 2005, published 2008)
In brackets after ≈: the same amount, converted by molar mass. Where two headings read alike, the source gives them in different places.

Legend:
Type in all cases: cell-based
S. aureus ATCC 12600-U = assay: MBC assay; conditions: Staphylococcus aureus, ATCC12600
Description: (§1) The staphylococci and enterococci were cultured and maintained on Mueller-Hinton Medium (agar and broth) at pH 7.2; they were incubated aerobically at 37° C. for 24 hours.
(§2) This assay, normally carried out after an MIC assay, determines the minimum concentration of a compound that is lethal to the micro-organism being tested.
(§3) These samples were then individually sub-cultured on non-selective agar medium, under the incubation conditions described above. Following incubation they were examined visually for bacterial growth.

S. aureus ATCC 12601 = assay: MBC assay; conditions: Staphylococcus aureus, ATCC12601
Description: as §1, §2, §3

S. aureus ATCC 12602 = assay: MBC assay; conditions: Staphylococcus aureus, ATCC12602
Description: as §1, §2, §3

S. aureus ATCC 12605 = assay: MBC assay; conditions: Staphylococcus aureus, ATCC12605
Description: as §1, §2, §3

S. aureus ATCC 12606 = assay: MBC assay; conditions: Staphylococcus aureus, ATCC12606
Description: as §1, §2, §3

S. aureus CPHL EMRSA 17 = assay: MBC assay; conditions: Staphylococcus aureus
Description: as §1, §2, §3

[1] = test system: S. aureus CPHL GISA HO41340156; assay: MBC assay; conditions: Staphylococcus aureus
Description: as §1, §2, §3

S. aureus CPHL VISA Mu3 = assay: MBC assay; conditions: Staphylococcus aureus
Description: as §1, §2, §3

S. aureus CPHL VISA Mu50 = assay: MBC assay; conditions: Staphylococcus aureus
Description: as §1, §2, §3

[2] = test system: S. epidermidis (NCTC 11047); assay: MBC assay; conditions: Staphylococcus epidermidis, NCTC11047
Description: as §1, §2, §3

[3] = test system: S. saprophyticus NCTC 7292; assay: MBC assay; conditions: Staphylococcus saprophyticus, NCTC7292
Description: as §1, §2, §3

[4] = test system: Staphylococcus aureus ATCC 12600; assay: MBC assay; conditions: ATCC12600
Description: as §1, §2, §3

[5] = test system: Staphylococcus capitis ATCC 27840; assay: MBC assay; conditions: ATCC27840
Description: as §1, §2, §3

[6] = test system: Staphylococcus cohnii ATCC 29974; assay: MBC assay; conditions: ATCC29974
Description: as §1, §2, §3

[7] = test system: Staphylococcus haemolyticus ATCC 29970; assay: MBC assay; conditions: ATCC29970
Description: as §1, §2, §3

[8] = test system: Staphylococcus simulans ATCC 27848; assay: MBC assay; conditions: ATCC27848
Description: as §1, §2, §3

[9] = test system: S. epidermidis (NCTC 11047); assay: Disc diffusion assay (DDA); conditions: zone diameter, 200 μg per disc
Description: as §1
(§4) A sterile paper disc was impregnated with a sample of the test compound and a minimum of 30 minutes allowed for the solvents to evaporate as far as possible. The disc was then placed on an agar plate onto which the test micro-organism had been inoculated. The plate was then incubated under the conditions described above, following which it was examined visually for signs of bacterial growth. If the test compound had antimicrobial activity, a circular zone of no growth would be obtained around the disc. The diameter of this zone of “inhibition” was measured using a ProtoCOL™ automated zone sizer (Synbiosis, Cambridge, UK). In general, a greater diameter and/or area of the zone of inhibition indicates a greater antimicrobial activity in the relevant test compound, although other factors such as test compound mobility through the agar gel may also influence the result.
(§5) The area of the zone of inhibition was calculated from the measured zone diameter (D) using the formula π(D/2)^2.

[10] = test system: S. saprophyticus NCTC 7292; assay: Disc diffusion assay (DDA); conditions: zone diameter, 200 μg per disc
Description: as §1, §4, §5

[11] = test system: Staphylococcus aureus ATCC 12600; assay: Disc diffusion assay (DDA); conditions: zone diameter, 200 μg per disc
Description: as §1, §4, §5

[12] = test system: Staphylococcus auricularis ATCC 33753; assay: Disc diffusion assay (DDA); conditions: zone diameter, 200 μg per disc
Description: as §1, §4, §5

[13] = test system: Staphylococcus capitis ATCC 27840; assay: Disc diffusion assay (DDA); conditions: zone diameter, 200 μg per disc
Description: as §1, §4, §5

[14] = test system: Staphylococcus cohnii ATCC 29974; assay: Disc diffusion assay (DDA); conditions: zone diameter, 200 μg per disc
Description: as §1, §4, §5

[15] = test system: Staphylococcus haemolyticus ATCC 29970; assay: Disc diffusion assay (DDA); conditions: zone diameter, 200 μg per disc
Description: as §1, §4, §5

[16] = test system: Staphylococcus hominis ATCC 27844; assay: Disc diffusion assay (DDA); conditions: zone diameter, 200 μg per disc
Description: as §1, §4, §5

[17] = test system: Staphylococcus simulans ATCC 27848; assay: Disc diffusion assay (DDA); conditions: zone diameter, 200 μg per disc
Description: as §1, §4, §5

[18] = test system: Staphylococcus warneri ATCC 27836; assay: Disc diffusion assay (DDA); conditions: zone diameter, 200 μg per disc
Description: as §1, §4, §5

[19] = test system: Staphylococcus xylosus ATCC 29971; assay: Disc diffusion assay (DDA); conditions: zone diameter, 200 μg per disc
Description: as §1, §4, §5

P. avidum ATCC 25577 = assay: Disc diffusion assay (DDA); conditions: zone diameter, 200 μg per disc
Description: (§6) The Propionibacterium spp organisms were cultured and maintained on Wilkins-Chalgren Anaerobe Medium (agar and broth) at pH 6.0; cultures were incubated anaerobically at 37° C. for 72 hours.
as §4, §5

P. granulosum NCTC 11865 = assay: Disc diffusion assay (DDA); conditions: zone diameter, 200 μg per disc
Description: as §6, §4, §5

P. granulosum PRP-005 = assay: Disc diffusion assay (DDA); conditions: zone diameter, 200 μg per disc
Description: as §6, §4, §5

P. granulosum PRP-043 = assay: Disc diffusion assay (DDA); conditions: zone diameter, 200 μg per disc
Description: as §6, §4, §5

P. granulosum PRP-044 = assay: Disc diffusion assay (DDA); conditions: zone diameter, 200 μg per disc
Description: as §6, §4, §5

P. granulosum PRP-055 = assay: Disc diffusion assay (DDA); conditions: zone diameter, 200 μg per disc
Description: as §6, §4, §5

| SMILES | MBC (S. aureus ATCC 12602) | MBC (S. aureus ATCC 12605) | MBC (S. aureus CPHL VISA Mu3) | MBC [5] | MBC [6] | DDA [9] | DDA [10] | DDA [11] | DDA [12] | DDA [13] | DDA [14] | DDA [15] | DDA [16] | DDA [17] | DDA [18] | DDA [19] | DDA (P. avidum ATCC 25577) | DDA (P. granulosum NCTC 11865) | DDA (P. granulosum PRP-005) | DDA (P. granulosum PRP-043) | other results |
| --- | --- | --- | --- | --- | --- | --- | --- | --- | --- | --- | --- | --- | --- | --- | --- | --- | --- | --- | --- | --- | --- |
| CC(C)(C)c1cc(O)ccc1O [TBHQ, t-butyl hydroquinone] | 7.8 µg/mL (≈ 46.9 µM) | 3.9 µg/mL (≈ 23.5 µM) | 7.8 µg/mL (≈ 46.9 µM) | 3.9 µg/mL (≈ 23.5 µM) | 7.8 µg/mL (≈ 46.9 µM) | 57.34 mm | 41.67 mm | 49.24 mm | 80.18 mm | 73.90 mm | 60.40 mm | 51.08 mm | 64.59 mm | 53.07 mm | 54.43 mm | 49.72 mm | 9.16 (±0.48) mm | 11.00 (±0.00) mm | 0.00 (±0.00) mm | 10.56 (±0.48) mm | MBC (S. aureus ATCC 12600-U): 7.8 µg/mL (≈ 46.9 µM); MBC (S. aureus ATCC 12601): 15.6 µg/mL (≈ 93.9 µM); MBC (S. aureus ATCC 12606): 7.8 µg/mL (≈ 46.9 µM); MBC (S. aureus CPHL EMRSA 17; S. aureus CPHL EMRSA 17 (resistance Met/β-lactams), read-out: MBC): 3.9 µg/mL (≈ 23.5 µM); MBC [1]: 15.6 µg/mL (≈ 93.9 µM); MBC (S. aureus CPHL VISA Mu50; VISA): 7.8 µg/mL (≈ 46.9 µM); MBC [2]: 7.8 µg/mL (≈ 46.9 µM); MBC [3]: 7.8 µg/mL (≈ 46.9 µM); MBC ([4]; Staphylococcus aureus): 7.8 µg/mL (≈ 46.9 µM); MBC ([7]; Staphylococcus haemolyticus): 7.8 µg/mL (≈ 46.9 µM); MBC ([8]; Staphylococcus simulans): 31.2 µg/mL (≈ 188 µM); DDA (P. granulosum PRP-044): 10.70 (±0.65) mm; DDA (P. granulosum PRP-055): 13.07 (±0.78) mm |
| O=C(OOC(=O)c1ccccc1)c1ccccc1 [benzoyl peroxide] | 125 µg/mL (≈ 516 µM) | 250 µg/mL (≈ 1030 µM) | 125 to 250 µg/mL (≈ 516 to 1030 µM) | 250 µg/mL (≈ 1030 µM) | 125 µg/mL (≈ 516 µM) | 10.65 mm | 11.38 mm | 11.99 mm | 21.56 mm | 12.46 mm | 11.51 mm | 11.10 mm | 11.83 mm | 9.94 mm | 12.04 mm | 10.99 mm | 25.83 (±0.95) mm | 24.19 (±0.94) mm | 22.95 (±0.64) mm | 22.48 (±1.19) mm | MBC (S. aureus ATCC 12600-U; S. aureus ATCC 12600-U, read-out: MBC): > 250 µg/mL; MBC (S. aureus ATCC 12601; S. aureus ATCC 12601, read-out: MBC): 250 µg/mL (≈ 1030 µM); MBC (S. aureus ATCC 12606; S. aureus ATCC 12606, read-out: MBC): 250 µg/mL (≈ 1030 µM); MBC (S. aureus CPHL EMRSA 17): 125 to 250 µg/mL (≈ 516 to 1030 µM); MBC ([1]; S. aureus CPHL GISA HO41340156 (Van/Tec intermediate), read-out: MBC): 250 µg/mL (≈ 1030 µM); MBC (S. aureus CPHL VISA Mu50; S. aureus CPHL VISA Mu50 (Van intermediate), read-out: MBC): 250 µg/mL (≈ 1030 µM); MBC ([2]; S. epidermidis NCTC 11047, read-out: MBC): 250 µg/mL (≈ 1030 µM); MBC ([3]; S. saprophyticus NCTC 7292, read-out: MBC): > 250 µg/mL; MBC ([4]; Staphylococcus aureus ATCC 12600, read-out: MBC): 250 µg/mL (≈ 1030 µM); MBC ([7]; Staphylococcus haemolyticus ATCC 29970, read-out: MBC): 250 µg/mL (≈ 1030 µM); MBC ([8]; Staphylococcus simulans ATCC 27848, read-out: MBC): > 250 µg/mL; DDA (P. granulosum PRP-044): 29.31 (±0.54) mm; DDA (P. granulosum PRP-055): 21.51 (±0.47) mm |
